Patent US12551526B2, “Enterically delivered bitter oligopeptides for the treatment for type 2 diabetes” (Cedars-Sinai Medical Center, priority 2015, dated 2026)
Where a chain is given by its changes, count along the chain named. “Also recorded” adds a separate entry of the source. Like-named read-outs stand apart in the source and are kept apart here. Values belong to the molecule of their own block, whether it stands above or below them.

Assays:
HuTu-80 cells [1] = assay: GLP-1 release from cultured HuTu-80 cells (Luminex assay); type: cell-based, human; details: for increase in GLP-1 over the basal release / GLP-1 release compared with TAS2R38 ligands PTC and PTU: HuTu-80 cells; for increase in GLP-1 over the basal release: 30 min, FIG. 9A; for GLP-1 release: HuTu-80 cells treated 30 min, GLP-1 in conditioned media; for GLP-1 release compared with TAS2R38 ligands PTC and PTU: FIG. 9B, PTC and PTU 10 mM
Method: HuTu-80 cells were untreated (zero-time) or treated with vehicle and various phytochemicals at indicated concentrations for 30 min. […] Values are mean±SE, N=3, *P<0.05, **P<0.01
HuTu-80 cells (HTB-40, ATCC) were propagated in Dulbecco's modified Eagle's medium (DMEM) containing 4 mM L-glutamine, 1.5 g/L sodium bicarbonate, and 4.5 g/L glucose, supplemented with 10% FBS and PSG antibiotic mix and maintained at 10% CO2 and 37° C. For experiments, these cells were seeded in 6-well plates or […] tissue culture dishes, propagated to confluence (5-7 days) and arrested in serum-free media overnight prior to treatments. Prior to the experiment, spent media was replaced with OPTI-MEM (Gibco, Life Technologies, Grand Island, NY) containing Halt Protease and Phosphatase Inhibitor cocktail (Thermo Fisher Scientific, Rockford, IL) and individual wells dosed for 30 min. […] The media from cells was collected and frozen for subsequent peptide hormone release measurement using a Luminex MAGPIX metabolism multiplexing assay kit (HMHMAG-34K) following the manufacturer's instructions.

GLP-1 release = assay: In vivo GLP-1 release in mice after gastric gavage; details: PTU-cellulose 5 g/kg, PTU 200 mg/kg, FIG. 4B
Method: FIG. 4A Synthesis of PTU-cellulose.
Retro-orbital blood was obtained and GLP-1 was measured at regular intervals.
The molecules were administered by gastric gavage to pathogen-free, 6-to-8-week-old male BALB/c mice. […] The cellulose alone had no effect.

TAS2R38 = target: T1, TAS2R38 (Homo sapiens, UniProt P59533); assay: GLP-1 release in HuTu-80 cells with TAS2R38 siRNA knockdown; type: cell-based; details: siTAS2R38 versus siCONTROL, 30 min
T1 construct: Cultured HuTu-80 cells were transfected with single and mixed oligonucleotide siRNAs for TAS2R38; host or cells: HuTu-80
T1 sequence (P59533 1-333): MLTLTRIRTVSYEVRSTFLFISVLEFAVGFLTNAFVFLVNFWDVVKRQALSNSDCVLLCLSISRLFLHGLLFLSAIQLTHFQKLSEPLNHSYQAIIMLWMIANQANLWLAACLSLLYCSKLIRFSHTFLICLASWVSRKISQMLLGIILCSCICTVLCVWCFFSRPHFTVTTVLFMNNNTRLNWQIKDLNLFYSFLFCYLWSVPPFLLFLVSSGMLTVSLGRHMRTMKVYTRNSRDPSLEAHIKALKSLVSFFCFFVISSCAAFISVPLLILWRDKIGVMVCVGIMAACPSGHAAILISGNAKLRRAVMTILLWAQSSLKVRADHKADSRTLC
Method: In order to determine the specific GPCR mediating the response of a particular ligand, we performed in vitro RNA silencing of TAS2R38. RNA silencing was performed using a commercial kit (FlexiTube siRNA, Qiagen) consisting of 4 predesigned oligonucleotides that specifically target each gene transcript. Each kit also had accompanying controls and quantifying assays for detection of gene knockdown. Cultured HuTu-80 cells were transfected with single and mixed oligonucleotide siRNAs for TAS2R38 using HiPerFect transfection reagent (Qiagen) or Lipofectamine 2000 (Life Tech) according to the procedure recommended by the manufacturer. Cells were maintained in the basal medium for up to 48 h. Gene knockdown was evaluated by RT-qPCR and Western blot by suitable antibody to ensure inhibition occurred. […] Dose-response curve of the ligand with and without siRNA treatment was generated.
FIGS. 6, 7, and 8 show the receptor expression and knockdown in HuTu-80 cells using a TAS2R38 receptor siRNA.
Conditioned media were collected and frozen until GLP-1 measurement. Values are mean±SD, N=3. GLP-1 is measured using Luminex assay.

HuTu-80 cells [2] = assay: GLP-1 release from cultured HuTu-80 cells (Luminex assay); type: cell-based, human; details: FIG. 3; printed as based on in vivo studies in mice
hTAS2R38PAV = target: T2, hTAS2R38PAV (Homo sapiens, UniProt P59533); details: taster haplotype; cited from earlier work
T2 sequence (P59533 1-333): T1 sequence (P59533 1-333)

HuTu-80 cells [3] = details: previous studies; cited from earlier work
hTAS2R38AVI = target: T3, hTAS2R38AVI (Homo sapiens, UniProt P59533, A262V); details: non-taster haplotype; cited from earlier work
T3 sequence (P59533 1-333 A262V): T1 sequence (P59533 1-333) with A262V

Molecule: CC1(C)CC[C@]2(C(=O)O)CC[C@]3(C)C(=CC[C@@H]4[C@@]5(C)CC[C@H](O)C(C)(C)[C@@H]5CC[C@]43C)[C@@H]2C1 [oleanolic acid]
increase in GLP-1 over the basal release (HuTu-80 cells [1]): significant increases

Molecule: CCCCCCCCCCCCCCCC(=O)O [palmitate, palmitic acid]
GLP-1 release (HuTu-80 cells [1]): GLP-1 secretory response was also observed
GLP-1 release compared with TAS2R38 ligands PTC and PTU (HuTu-80 cells [1]): stimulate GLP-1 release comparable to that by TAS2R38 ligands PTC and PTU

Molecule: CCC(=O)O [propionate]
GLP-1 release (HuTu-80 cells [1]): GLP-1 secretory response was also observed
GLP-1 release compared with TAS2R38 ligands PTC and PTU (HuTu-80 cells [1]): stimulate GLP-1 release comparable to that by TAS2R38 ligands PTC and PTU

GLP-1 release when TAS2R38 expression is knocked down (TAS2R38): right-shifted
Molecule: CCCc1cc(=O)[nH]c(=S)[nH]1 [PTU, 6-n-propylthiouracil]
GLP-1 release (HuTu-80 cells [1]): caused GLP-1 release
GLP-1 release into the blood (GLP-1 release): caused GLP-1 release into the blood

Molecule: YGLF [BPx1, bitter oligopeptide derived from milk-whey proteins]
GLP-1 release when TAS2R38 expression is knocked down (TAS2R38): predominantly through TAS2R38; also recorded: decreased
potency rank among the four oligopeptides (HuTu-80 cells [2]): most potent

Molecule: NC(=S)Nc1ccccc1 [PTC, Phenylthiocarbamide]
receptor response (hTAS2R38PAV): strong response at μM concentrations
GLP-1 release (HuTu-80 cells [3]): GLP-1 release
receptor response (hTAS2R38AVI): does not respond

Molecule: CN(C)C(=N)N=C(N)N [metformin]
GLP-1 release (HuTu-80 cells [1]): can activate GLP-1 release

Molecule: O=c1oc2cc(O)ccc2c2ccc(O)cc12 [urolithin A]
increase in GLP-1 over the basal release (HuTu-80 cells [1]): significant increases

Molecule: YPFPGPIPN [BPx2, bitter oligopeptide derived from milk-whey proteins]
potency rank among the four oligopeptides (HuTu-80 cells [2]): most potent

Molecule: Ala-Ala-Ala-Ala (AAAA; printed: Ala-Ala-Ala-Ala) [PolyAla, scrambled PolyAla control peptide]
GLP-1 release (HuTu-80 cells [1]): in effective at causing GLP-1 release

Molecule: O=c1oc2c(O)c(O)cc3c(=O)oc4c(O)c(O)cc1c4c23 [ellagic acid]
increase in GLP-1 over the basal release (HuTu-80 cells [1]): significant increases
